{"source": "patent US20220184082A1", "about": "“CANCER THERAPY USING 3,5-DISUBSTITUTED BENZENE ALKYNYL COMPOUND AND PEMBROLIZUMAB” (TAIHO PHARMACEUTICAL CO., LTD., priority 2019, published 2022)", "molecules": {"B1": {"name": "vofatamab: an anti-FGFR3 antibody (antibody, chains of the INN, looked up, V domains shown)", "VH": "EVQLVESGGGLVQPGGSLRLSCAASGFTFTSTGISWVRQAPGKGLEWVGRIYPTSGSTNYADSVKGRFTISADTSKNTAYLQMNSLRAEDTAVYYCARTYGIYDLYVDYTEYVMDYWGQGTLVTVSS", "VL": "DIQMTQSPSSLSASVGDRVTITCRASQDVDTSLAWYKQKPGKAPKLLIYSASFLYSGVPSRFSGSGSGTDFTLTISSLQPEDFATYYCQQSTGHPQTFGQGTKVEIK"}}, "key": {"[1]": {"system": "mouse breast cancer cell line 4T1", "conditions": "4T1-implanted BALB/cAJcl mouse; oral daily 14 days, 15 and 30 mg/kg/day; Day 15", "procedure": "On the day following the final administration (Day 15), lymphocyte fractions were isolated from the tumor, spleen, and peripheral blood, and myeloid-derived suppressor cells (MDSCs) (CD11b^+/Gr-1^+ cells), CD4-positive T cells, and CD8-positive T cells were measured using a cell sorter."}, "urothelial cancer": {"system": "urothelial cancer", "conditions": "cited from earlier work"}}, "data": [{"molecule": "C=CC(=O)N1CC[C@H](n2nc(C#Cc3cc(OC)cc(OC)c3)c3c(N)ncnc32)C1", "note": "[compound 1, (S)-1-(3-(4-amino-3-((3,5-dimethoxyphenyl)ethynyl)-1H-pyrazolo[3,4-d]pyrimidin-1-yl)pyrrolidin-1-yl)prop-2-en-1-one]", "values": [{"measurement": "CD4-positive T cells in the peripheral blood lymphocyte fractions compared with the control", "setting": "[1]", "value": "tended to increase in a dose-dependent manner"}, {"measurement": "CD8-positive T cells in the peripheral blood lymphocyte fractions compared with the control", "setting": "[1]", "value": "tended to increase in a dose-dependent manner"}, {"measurement": "CD8-positive T cells in the spleen lymphocyte fractions compared with the control", "setting": "[1]", "value": "tended to increase in a dose-dependent manner"}, {"measurement": "MDSCs in the peripheral blood lymphocyte fractions compared with the control", "setting": "[1]", "value": "tended to decrease in a dose-dependent manner"}]}, {"molecule": "B1", "values": [{"measurement": "Response by combined use with pembrolizumab", "setting": "urothelial cancer; urothelial cancer patients without FGFR genetic aberration, combined with pembrolizumab", "value": "response by combined use with pembrolizumab is observed"}, {"measurement": "Sensitivity state of the cancer to immune checkpoint inhibitors", "setting": "urothelial cancer; urothelial cancer patients", "value": "change from a “cold” state (low sensitivity to immune checkpoint inhibitors) to a “hot” state (high sensitivity to immune checkpoint inhibitors)"}]}]}
